# Test results published in patent US6010721A, “Glycyrrhetinic-acid-like factor” (The Miriam Hospital, priority 1996, dated 2000).
# “Also recorded” adds a separate entry of the source.
# Key:
# [1] = target: T1, 11β-hydroxysteroid dehydrogenase (11β-OHSD) (Rattus norvegicus, UniProt P16232); assay: Screening of endogenous substances for inhibition of 11β-OHSD (Example III); assay type: biochemical; conditions: endogenous substances screened
# From the text: (§1) Various endogenous substances which bear similar structural resemblances to glycyrrhetinic acid (GA) were screened for inhibitory activity against 11β-hydroxysteroid dehydrogenase (11β-OHSD) and 5β-reductase (5β-R).
# 5β-reductase (5β-R) = target: T2, 5β-reductase (5β-R) (Rattus norvegicus, UniProt P31210); assay: Screening of endogenous substances for inhibition of 5β-reductase (Example III); assay type: biochemical; conditions: endogenous substances screened
# T2 construct: [3H]-aldosterone reduction with NADPH
# T2 sequence (P31210 1-326): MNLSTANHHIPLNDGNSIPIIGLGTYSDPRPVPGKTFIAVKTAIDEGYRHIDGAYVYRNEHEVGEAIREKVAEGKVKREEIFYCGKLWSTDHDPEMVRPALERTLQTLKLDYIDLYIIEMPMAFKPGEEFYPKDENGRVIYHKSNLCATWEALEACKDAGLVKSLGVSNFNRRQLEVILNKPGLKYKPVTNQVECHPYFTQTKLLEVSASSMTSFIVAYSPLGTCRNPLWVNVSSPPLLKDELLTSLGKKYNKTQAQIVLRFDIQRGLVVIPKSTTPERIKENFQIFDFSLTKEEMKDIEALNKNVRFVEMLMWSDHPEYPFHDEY
# From the text: as §1
# adrenalectomized rats = assay: Mineralocorticoid action conferred upon corticosterone in adrenalectomized rats (Example III); assay type: in vivo
# Method: 3α,5β-THDOC and bile acids were also treated to determine whether, like GA, they could confer mineralocorticoid (MC) actions upon corticosterone.
# [2] = target: T1, 11β-hydroxysteroid dehydrogenase (11β-OHSD); conditions: incubated with enzyme; cited from earlier work
# steroid 5β-reductase = conditions: incubated with enzyme; cited from earlier work
# [3] = tested on: adrenalectomized male rats; conditions: cited from earlier work
# T1 sequence (P16232 whole entry): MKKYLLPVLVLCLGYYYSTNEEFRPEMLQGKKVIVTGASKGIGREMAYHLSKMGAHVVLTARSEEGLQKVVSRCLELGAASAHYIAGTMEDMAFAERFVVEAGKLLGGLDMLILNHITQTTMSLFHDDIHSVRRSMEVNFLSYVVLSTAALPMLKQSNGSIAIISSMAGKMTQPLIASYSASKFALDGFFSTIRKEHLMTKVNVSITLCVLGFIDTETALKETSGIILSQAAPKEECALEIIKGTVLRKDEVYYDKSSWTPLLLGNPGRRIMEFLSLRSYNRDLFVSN
Structure (SMILES),inhibition of 11β-OHSD (potency in words) [1],inhibition of 5β-R (potency in words) (5β-reductase (5β-R)),further results
"C[C@]12CC[C@@H](O)C[C@H]1CC[C@@H]1[C@@H]2CC[C@]2(C)[C@@H](C(=O)CO)CC[C@@H]12 [3α,5β-THDOC, 3α,5β-tetrahydrodeoxycorticosterone]",most potent inhibitor; also recorded: inhibit both 11β-OHSD and 5β-R activity,most potent inhibitor; also recorded: inhibit both 11β-OHSD and 5β-R activity,
"C[C@H](CCC(=O)O)[C@H]1CC[C@H]2[C@@H]3[C@H](O)C[C@@H]4C[C@H](O)CC[C@]4(C)[C@H]3C[C@H](O)[C@]12C [CA, cholic acid]",moderate inhibitor,weak inhibitors,
"C[C@H](CCC(=O)O)[C@H]1CC[C@H]2[C@@H]3[C@H](O)C[C@@H]4C[C@H](O)CC[C@]4(C)[C@H]3CC[C@]12C [CDCA, chenodeoxycholic acid]",most potent inhibitor; also recorded: inhibit both 11β-OHSD and 5β-R activity,most potent inhibitor; also recorded: inhibit both 11β-OHSD and 5β-R activity,"antinatriuresis caused by corticosterone after pretreatment (adrenalectomized rats; adrenalectomized rats pretreated with CDCA, then corticosterone): significant antinatriuresis"
"C[C@H](CCC(=O)O)[C@H]1CC[C@H]2[C@@H]3CC[C@@H]4C[C@H](O)CC[C@]4(C)[C@H]3C[C@H](O)[C@]12C [DCA, deoxycholic acid]",weak inhibitor,moderate inhibitor,
CC1(C)[C@@H](O)CC[C@]2(C)[C@H]3C(=O)C=C4[C@@H]5C[C@@](C)(C(=O)O)CC[C@]5(C)CC[C@@]4(C)[C@]3(C)CC[C@@H]12 [Glycyrrhetinic Acid],,,inhibition of 11β-OHSD [2]: markedly inhibit; inhibition of steroid 5β-reductase (steroid 5β-reductase): markedly inhibit
"C[C@H](CCC(=O)O)[C@H]1CC[C@H]2[C@@H]3CC[C@@H]4C[C@H](O)CC[C@]4(C)[C@H]3CC[C@]12C [LCA, lithocholic acid]",potent inhibitor; also recorded: inhibit both 11β-OHSD and 5β-R activity,weak inhibitors; also recorded: inhibit both 11β-OHSD and 5β-R activity,
"CCC[C@@H]1CC2=CC(=O)CC[C@]2(C)[C@H]2CC[C@@]3(C)[C@@H](CC[C@@]3(O)CCC(=O)O)[C@H]12 [RU28318, reference compound]",,,"effect of antimineralocorticoid on the CDCA/corticosterone antinatriuresis (adrenalectomized rats; adrenalectomized rats, CDCA + corticosterone): blocked"
CC1(C)[C@@H](OC(=O)CCC(=O)O)CC[C@]2(C)[C@H]3C(=O)C=C4[C@@H]5C[C@@](C)(C(=O)O)CC[C@]5(C)CC[C@@]4(C)[C@]3(C)CC[C@@H]12 [carbenoxolone sodium],,,effect on Na^+ retaining properties of aldosterone and deoxycorticosterone [3]: amplified the Na^+ retaining properties; effect on glucocorticoids corticosterone and cortisol [3]: display minearlocorticoid like activity
